Literature values as cited in US9107877B2, “Method of treating onychomycosis” (Polichem SA, priority 2013, dated 2015).

Columns and labels:
onychomycosis [1] = conditions: oral, 250 mg tablet a day for 12 weeks
onychomycosis [2] = conditions: 48 weeks of daily topical treatment, 12-week follow up

SMILES | Complete cure, % of patients (onychomycosis [1]) | Complete cure (onychomycosis [2]) | Responders (onychomycosis [2])
CN(C/C=C/C#CC(C)(C)C)Cc1cccc2ccccc12 [terbinafine] | 38% | – | –
Cc1cc(C2CCCCC2)n(O)c(=O)c1 [ciclopirox] | – | about 13% | ~30%
